Test results as given in publication PMC9558053, “Development of a novel high-throughput screen for the identification of new inhibitors of protein S-acylation” (The Journal of Biological Chemistry, 2022).

Molecular target: T1, human zDHHC2 (Homo sapiens, UniProt Q9UIJ5)
T1 construct: expressed in transfected cells; host or cells: HEK293T
T1 sequence (Q9UIJ5 1-367): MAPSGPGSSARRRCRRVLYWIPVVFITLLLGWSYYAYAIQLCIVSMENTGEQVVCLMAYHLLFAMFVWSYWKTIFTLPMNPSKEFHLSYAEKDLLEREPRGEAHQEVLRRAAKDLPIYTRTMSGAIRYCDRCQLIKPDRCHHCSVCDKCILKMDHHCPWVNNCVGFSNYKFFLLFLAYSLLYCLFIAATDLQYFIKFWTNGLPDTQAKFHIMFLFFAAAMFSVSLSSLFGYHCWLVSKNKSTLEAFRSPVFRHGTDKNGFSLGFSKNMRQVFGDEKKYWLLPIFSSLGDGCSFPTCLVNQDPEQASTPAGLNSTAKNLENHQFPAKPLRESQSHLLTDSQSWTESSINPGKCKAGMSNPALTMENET
Assay: TR-FRET high-throughput assay of zDHHC2 autoacylation (HA-zDHHC2 lipoparticles, NBD-palmitoyl-CoA)
Type: biochemical
Details: Ono; for inhibition at 4.2 µM: compound 4.2 μM; for inhibition at 12.5 µM: compound 12.5 μM
From the text: S-acylation is a two-step process involving enzyme “autoacylation” (at the cysteine of the DHHC motif) followed by transfer of the acyl chain to a substrate protein. To identify potential inhibitors of S-acylation, we developed an assay measuring enzyme autoacylation and focused on zDHHC2 given its prominent role in synaptic function in the nervous system (Fig. 1A). The assay monitors time-resolved FRET (TR-FRET) between the energy donor terbium cryptate (attached to an antibody recognizing hemagglutinin [HA]-tagged zDHHC2) and the acceptor fluorophore nitrobenzoxadiazole (NBD) (attached to the lipid group). The excitation of the energy donor terbium cryptate (360 nm) followed by its emission at 480 nm results in energy transfer to the acceptor NBD and emission at 539 nm. Enzyme autoacylation by NBD-conjugated palmitoyl-CoA increases the proximity of the terbium cryptate and NBD, leading to an increase in FRET signal. The resulting interaction is quantified as the ratiometric measurement of NBD (539 nm) over terbium (480 nm) emission and constitutes the TR-FRET signal.
Figure 1 High-throughput screen (HTS) for the discovery of chemical compounds modulating human zDHHC2 autoacylation activity: TR-FRET-based assay.A, experimental design of the HTS. HA-tagged zDHHC2 enzyme expressed at the surface of lipoparticles was incubated for 15 min at room temperature (RT) with NBD-tagged palmitoyl-CoA and an anti-HA antibody coupled to terbium (Tb) cryptate. Autoacylation of zDHHC2 on its catalytic cysteine brings closer the FRET donor Tb cryptate bound to the anti-HA antibody to the NBD fluorophore coupled to the palmitate and triggers FRET that can be followed over time (time-resolved FRET [TR-FRET]). B, TR-FRET was measured with increasing concentrations of NBD-palmitoyl-CoA (NBD-C16:0-CoA) and either WT zDHHC2 (left panel) or catalytically dead zDHHC2 C157S (right panel) over a period of 35 min. C, experimental conditions of the HTS screen. About 350,000 compounds were incubated individually in 1536-well plates at a concentration of 4.2 μM with zDHHC2 lipoparticles (42 μg/ml stock) for a few minutes before the addition of a mix containing the Tb cryptate–tagged anti-HA antibody (1:200 dilution) and 1 μM of NBD-palmitoyl-CoA (NBD-C16:0-CoA). TR-FRET was measured after a 15 min incubation at room temperature on a Biotek Synergy Neo apparatus. Results are given as a ratio between the FRET signal measured over a background baseline. D, histogram representation of ONO library screen showing the percentage of activity of zDHHC2 (as measured by TR-FRET) in the presence of each compound. The graph represents the number of compounds that are either activating (0 to 100) or inhibiting (0 to −100) zDHHC2 activity. […]

Row | Structure (SMILES) | inhibition at 4.2 µM | inhibition at 12.5 µM
1 | CCCCCCCOc1ccc(C(=O)Nc2cccc3c2OC(c2nnn[nH]2)CN3)cc1 (stereo not shown) [TTZ-1, N-(2-(1H-Tetrazol-5-yl)-3,4-dihydro-2H-benzo[b][1,4]oxazin-8-yl)-4-(heptyloxy)benzamide] | 32% | 61%
2 | O=C(Nc1cccc2c1OC(c1nnn[nH]1)CN2)c1ccc(OCCCCc2ccccc2)cc1 (stereo not shown) [TTZ-2, N-(2-(1H-Tetrazol-5-yl)-3,4-dihydro-2H-benzo[b][1,4]oxazin-8-yl)-4-(4-phenylbutoxy)benzamide] | 45% | 69%
